Data taken from PMC6352943, “Novel pyrazolo[3,4-d]pyrimidines: design, synthesis, anticancer activity, dual EGFR/ErbB2 receptor tyrosine kinases inhibitory activity, effects on cell cycle profile and caspase-3-mediated apoptosis” (Journal of Enzyme Inhibition and Medicinal Chemistry, 2019).

How the values were obtained:
UO-31 = experiment: NCI 60 cell line single dose screen (SRB); format: cell-based; details: Homo sapiens; UO-31 (renal cancer), single dose 10^−5 M, 48 h; read-out: Growth inhibition percentage
Procedure, shortened: (§1)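 Cells were plated and grown 24 h at 37 °C, 5% CO2 before compound addition from DMSO stock, then exposed 48 h. Adherent cells were fixed with cold TCA (final 10%) and suspension cells with 16% TCA. SRB-stained protein was read at 515 nm and percent growth was calculated against time-zero and untreated plates.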

A498 = experiment: NCI 60 cell line single dose screen (SRB); format: cell-based; details: Homo sapiens; A498 (renal cancer), single dose 10^−5 M, 48 h; read-out: Growth inhibition percentage
Procedure, shortened: as §1

MDA-MB-468 = experiment: NCI 60 cell line single dose screen (SRB); format: cell-based; details: Homo sapiens; MDA-MB-468 (breast cancer), single dose 10^−5 M, 48 h; read-out: Growth inhibition percentage
Procedure, shortened: as §1

786-0 = experiment: NCI 60 cell line single dose screen (SRB); format: cell-based; details: Homo sapiens; 786-0 (renal cancer), single dose 10^−5 M, 48 h; read-out: Growth inhibition percentage
Procedure, shortened: as §1

U251 = experiment: NCI 60 cell line single dose screen (SRB); format: cell-based; details: Homo sapiens, U-251; U251 (CNS cancer), single dose 10^−5 M, 48 h; read-out: Growth inhibition percentage
Procedure, shortened: as §1

MDA-MB-435 = experiment: NCI 60 cell line single dose screen (SRB); format: cell-based; details: Homo sapiens; MDA-MB-435 (melanoma), single dose 10^−5 M, 48 h; read-out: Growth inhibition percentage
Procedure, shortened: as §1

MALME-3M = experiment: NCI 60 cell line single dose screen (SRB); format: cell-based; details: Homo sapiens; MALME-3M (melanoma), single dose 10^−5 M, 48 h; read-out: Growth inhibition percentage
Procedure, shortened: as §1

SW-620 = experiment: NCI 60 cell line single dose screen (SRB); format: cell-based; details: Homo sapiens; SW-620 (colon cancer), single dose 10^−5 M, 48 h; read-out: Growth inhibition percentage
Procedure, shortened: as §1

HCT-116 = experiment: NCI 60 cell line single dose screen (SRB); format: cell-based; details: Homo sapiens; HCT-116 (colon cancer), single dose 10^−5 M, 48 h; read-out: Growth inhibition percentage
Procedure, shortened: as §1

M14 = experiment: NCI 60 cell line single dose screen (SRB); format: cell-based; details: Homo sapiens; M14 (melanoma), single dose 10^−5 M, 48 h; read-out: Growth inhibition percentage
Procedure, shortened: as §1

T-47D = experiment: NCI 60 cell line single dose screen (SRB); format: cell-based; details: Homo sapiens, T47D; T-47D (breast cancer), single dose 10^−5 M, 48 h; read-out: Growth inhibition percentage
Procedure, shortened: as §1

COLO 205 = experiment: NCI 60 cell line single dose screen (SRB); format: cell-based; details: Homo sapiens, COLO 205, 48 h; read-out: Growth inhibition percentage
Procedure, shortened: as §1

SF-295 = experiment: NCI 60 cell line single dose screen (SRB); format: cell-based; details: Homo sapiens; SF-295 (CNS cancer), single dose 10^−5 M, 48 h; read-out: Growth inhibition percentage
Procedure, shortened: as §1

NCI-H322M = experiment: NCI 60 cell line single dose screen (SRB); format: cell-based; details: Homo sapiens; NCI-H322M (non-small cell lung cancer), single dose 10^−5 M, 48 h; read-out: Growth inhibition percentage
Procedure, shortened: as §1

MCF7 = experiment: NCI 60 cell line single dose screen (SRB); format: cell-based; details: Homo sapiens; MCF7 (breast cancer), single dose 10^−5 M, 48 h; read-out: Growth inhibition percentage
Procedure, shortened: as §1

OVCAR-8 = experiment: NCI 60 cell line single dose screen (SRB); format: cell-based; details: Homo sapiens; OVCAR-8 (ovarian cancer), single dose 10^−5 M, 48 h; read-out: Growth inhibition percentage
Procedure, shortened: as §1

SMILES: Cc1nn(-c2ccc(F)cc2)c2ncnc(Nc3ccc(F)c(Cl)c3)c12 [Compound 7d, N-(3-Chloro-4-fluorophenyl)-1–(4-fluorophenyl)-3-methyl-1H-pyrazolo[3,4-d] pyrimidin-4-amine]
- inhibition at 10 µM (UO-31): 25.5%
- inhibition at 10 µM (A498): -5.43%
- inhibition at 10 µM (MDA-MB-468): -1.69%
- inhibition at 10 µM (786-0): 21.3%
- inhibition at 10 µM (U251): 24%
- inhibition at 10 µM (MDA-MB-435): 0.1%
- inhibition at 10 µM (MALME-3M): 1.56%
- inhibition at 10 µM (SW-620): 11.1%
- inhibition at 10 µM (HCT-116): 19.2%
- inhibition at 10 µM (M14): 1.01%
- inhibition at 10 µM (T-47D): 27.4%
- inhibition at 10 µM (COLO 205): -3.96%
- inhibition at 10 µM (SF-295): 40%
- inhibition at 10 µM (NCI-H322M): 12%
- inhibition at 10 µM (MCF7): 15.7%
- inhibition at 10 µM (OVCAR-8): 16.6%

SMILES: Cc1nn(-c2ccc(F)cc2)c2ncnc(N3CCOCC3)c12 [Compound 8a, 1–(4-Fluorophenyl)-3-methyl-4-morpholino-1H-pyrazolo[3,4-d]pyrimidine]
- inhibition at 10 µM (UO-31): 5.57%
- inhibition at 10 µM (A498): 4.93%
- inhibition at 10 µM (MDA-MB-468): -7.8%
- inhibition at 10 µM (786-0): 10.6%
- inhibition at 10 µM (U251): -1.7%
- inhibition at 10 µM (MDA-MB-435): -2.24%
- inhibition at 10 µM (MALME-3M): -10.5%
- inhibition at 10 µM (SW-620): -4.76%
- inhibition at 10 µM (HCT-116): -7.69%
- inhibition at 10 µM (M14): -4.47%
- inhibition at 10 µM (T-47D): -22.2%
- inhibition at 10 µM (COLO 205): -7.19%
- inhibition at 10 µM (SF-295): 0.61%
- inhibition at 10 µM (NCI-H322M): 5.51%
- inhibition at 10 µM (MCF7): 9.07%
- inhibition at 10 µM (OVCAR-8): -5.87%

SMILES: Cc1nn(-c2ccc(F)cc2)c2ncnc(N3CCN(c4ccc(Cl)cc4)CC3)c12 [Compound 8c, 4–(4-(4-Chlorophenyl)piperazin-1-yl)-1–(4-fluorophenyl)-3-methyl-1H-pyrazolo[3,4-d]pyrimidine]
- melting point: 167 to 169 °C
- inhibition at 10 µM (UO-31): 34.9%
- inhibition at 10 µM (A498): 9.66%
- inhibition at 10 µM (MDA-MB-468): -3.83%
- inhibition at 10 µM (786-0): -2.04%
- inhibition at 10 µM (U251): -0.06%
- inhibition at 10 µM (MDA-MB-435): -14.5%
- inhibition at 10 µM (MALME-3M): 4.22%
- inhibition at 10 µM (SW-620): -3.16%
- inhibition at 10 µM (HCT-116): 1.69%
- inhibition at 10 µM (M14): -0.94%
- inhibition at 10 µM (T-47D): 10.3%
- inhibition at 10 µM (COLO 205): -1.97%
- inhibition at 10 µM (SF-295): -0.93%
- inhibition at 10 µM (NCI-H322M): 3.9%
- inhibition at 10 µM (MCF7): 3.1%
- inhibition at 10 µM (OVCAR-8): 3.66%

SMILES: COc1ccc(N2CCN(c3ncnc4c3c(C)nn4-c3ccc(F)cc3)CC2)cc1 [Compound 8d, 1–(4-Fluorophenyl)-4–(4-(4-methoxyphenyl)piperazin-1-yl)-3-methyl-1H-pyrazolo[3,4-d]pyrimidine]
- inhibition at 10 µM (UO-31): 21.3%
- inhibition at 10 µM (A498): -0.85%
- inhibition at 10 µM (MDA-MB-468): 0.37%
- inhibition at 10 µM (786-0): -4.57%
- inhibition at 10 µM (U251): -2.5%
- inhibition at 10 µM (MDA-MB-435): -6.1%
- inhibition at 10 µM (MALME-3M): 5.14%
- inhibition at 10 µM (SW-620): -0.63%
- inhibition at 10 µM (HCT-116): 7.42%
- inhibition at 10 µM (M14): 3.95%
- inhibition at 10 µM (T-47D): 3.85%
- inhibition at 10 µM (COLO 205): -7.56%
- inhibition at 10 µM (SF-295): -2.4%
- inhibition at 10 µM (NCI-H322M): 1.5%
- inhibition at 10 µM (MCF7): 1.6%
- inhibition at 10 µM (OVCAR-8): 1.33%

SMILES: Cc1nn(-c2ccc(F)cc2)c2ncnc(NN)c12 [Compound 9, 1–(4-Fluorophenyl)-4-hydrazinyl-3-methyl-1H-pyrazolo[3,4-d]-pyrimidine]
- melting point: 208 to 210 °C
- inhibition at 10 µM (UO-31): 28.7%
- inhibition at 10 µM (A498): 1.48%
- inhibition at 10 µM (MDA-MB-468): 18.5%
- inhibition at 10 µM (786-0): -3.72%
- inhibition at 10 µM (U251): 9.85%
- inhibition at 10 µM (MDA-MB-435): -9.22%
- inhibition at 10 µM (MALME-3M): 19%
- inhibition at 10 µM (SW-620): -8.79%
- inhibition at 10 µM (HCT-116): 3.99%
- inhibition at 10 µM (M14): -8%
- inhibition at 10 µM (T-47D): 32%
- inhibition at 10 µM (COLO 205): -11.7%
- inhibition at 10 µM (SF-295): -3.92%
- inhibition at 10 µM (NCI-H322M): 23.9%
- inhibition at 10 µM (MCF7): 11.5%
- inhibition at 10 µM (OVCAR-8): 1.29%
